We go through three compounds from paper PMC7913621 (Molecules, 2021).

Data set [1] deals with colon cancer cell line HT29. The conditions noted are these: read-out: cytotoxic effect IC50; cited from earlier work.
Data set [2] relates to PDE. The following applies: read-out: PDE inhibition activity IC50; cited from earlier work.
Data set [3] has as its system PDE5A1. The conditions noted are these: read-out: PDE5A1 inhibition IC50; cited from earlier work.
Data set [4] concerns AChE. The conditions noted are these: read-out: AChE inhibition IC50; cited from earlier work.
Data set [5] has as its system colorectal carcinoma HCT116p53^−/−. The experiment in a line: MTT cell viability assay, HCT116p53−/−. It is filed as cell-based, human. The conditions noted are these: Homo sapiens, 72 h, median (95% Confidence Intervals). How it is done:
(§1) The following human cell lines were used in this study: (i) epidermoid carcinoma A-431 (ATCC® CRL-1555), (ii) lung carcinoma A549 (ATCC® CCL-185), (iii) colorectal carcinoma HCT116 (ATCC® CCL-247), (iv) HCT116p53^−/−, (v) glioblastoma U-87 MG (ATCC® HTB-14), (vi) glioblastoma U-251 MG (ECACC 09063001), (vii) breast adenocarcinoma MCF7 (ATCC® HTB-22), (viii) breast adenocarcinoma MDA-MB-231 (ECACC 92020424), (ix) papillomavirus-related cervical squamous cell carcinoma SKG-IIIa (RRID:CVCL_1704), (x) cervical adenocarcinoma HeLa (ATCC® CCL-2), (xi) bone osteosarcoma U-2 OS (ATCC® HTB-96), (xii) hepatocellular carcinoma HEPG2 (ATCC® HB-8065), (xiii) larynx squamous cell carcinoma BICR 18 (ECACC 06051601), (ix) kidney HEK 293T (ATCC® CRL-11268), (xv) normal lung fibroblasts MRC-5 (ATCC® CCL-171), (xvi) normal fibroblasts BJ (ATCC® CRL-2522). The HCT116p53^−/− cell line was a kind gift from professor Bert Vogelstein (John Hopkin’s University, Baltimore, MD, USA). The remaining cell lines were purchased from ATCC (Manassas, VA, USA) or Sigma-Aldrich by Merck (Darmstadt, Germany).
(§2) Cells were cultured in minimal or Dulbecco’s modified Eagle’s or Ham’s F10 medium supplemented with 10% fetal bovine serum (Gibco by Thermo Fisher Scientific, Waltham, MA, USA) and (for BICR 18) 0.4 μg/mL hydrocortizone (Sigma-Aldrich by Merck, Darmstadt, Germany) under standard culture conditions (37 °C, 5% CO2) in a humidified incubator with an atmospheric oxygen.
(§3) The viability of cells was assayed by measuring the conversion of MTT (3-(4,5-dimethylthiazol-2-yl)-2,5-diphenyltetrazolium bromide) to the formazan (the rate of this reaction is proportional to the number of surviving cells). Cells were seeded in a 96-well plate at a density of 2500–3500 cells per well, 24 h before treatment. […] MTT stock solution (Sigma-Aldrich) was added at the final concentration 0.5 mg/mL. After 4 h of incubation at 37 °C, water-insoluble formazan was dissolved in a lysis buffer containing 20% SDS, 50% DMF, 2.5% hydrochloric acid and 2.5% acetic acid. Optical densities were measured at 570 nm using a scanning multi-well spectrophotometer ([…] Detection Platform; Beckman Coulter, Brea, CA, USA). At least three independent experiments of viability were conducted.
(Tetrazolium dyes change colour on reduction, which living cells bring about.)

Data set [6] concerns cervical adenocarcinoma HeLa. The experiment in a line: MTT cell viability assay, HeLa. It is filed as cell-based, human. The following applies: Homo sapiens, 72 h, median (95% Confidence Intervals). How it is done: as §1, §2, §3
The test system of data set [7] is larynx squamous cell carcinoma BICR 18. The experiment in a line: MTT cell viability assay, BICR 18. It is filed as cell-based, human. The conditions noted are these: Homo sapiens; BICR 18, MTT, 72 h; median (95% Confidence Intervals). How it is done: as §1, §2, §3
In data set [8] the test system is epidermoid carcinoma A-431. The experiment in a line: MTT cell viability assay, A-431. The format is cell-based, human. The conditions noted are these: Homo sapiens; A-431, MTT, 72 h; median (95% Confidence Intervals). How it is done: as §1, §2, §3
Data set [9] relates to kidney HEK 293T. The data set can be described thus: MTT cell viability assay, HEK 293T. It is filed as cell-based, human. The following applies: Homo sapiens, 72 h, median (95% Confidence Intervals). How it is done:
as §1, §2, §3

In data set [10] the test system is hepatocellular carcinoma HEPG2. The data set can be described thus: MTT cell viability assay, HEPG2. The conditions noted are these: Homo sapiens, 72 h, median (95% Confidence Intervals). The format is cell-based, human. How it is done: as §1, §2, §3
Data set [11] relates to normal fibroblasts BJ. The data set can be described thus: MTT cell viability assay, BJ. The conditions noted are these: Homo sapiens, Fibroblast, 72 h, median (95% Confidence Intervals). The format is cell-based, human. How it is done: as §1, §2, §3
For data set [12], the system named is normal lung fibroblasts MRC-5. The experiment in a line: MTT cell viability assay, MRC-5. It is filed as cell-based, human. The following applies: Homo sapiens, MRC5; MRC-5, MTT, 72 h; median (95% Confidence Intervals). How it is done: as §1, §2, §3
The test system of data set [13] is blood platelet aggregation. The data set can be described thus: platelet aggregation in platelet-rich plasma (light transmittance aggregometry, collagen + DEA-NO). The conditions noted are these: Homo sapiens, 10 μM compound, 500 nM DEA-NO, 2 μg/mL collagen, vs DMSO + DEA-NO. It is filed as cell-based. An excerpt:
Nitric oxide is one of the main physiological antiplatelet molecules secreted by vascular endothelium. It stimulates intraplatelet production of cGMP. This secondary messenger is then decomposed in platelets by the activity of two out of three PDE isoforms which are detected in platelets, namely by PDE2 and PDE5, while the other isoform (PDE3) is mostly involved in cAMP hydrolysis. Inhibitors of these phosphodiesterases increase intraplatelet concentration of cGMP and thus potentiate the antiplatelet effect of NO [52]. […]
Multiplate test cells for turbidimetric aggregometry and collagen were purchased from Chronolog Co (Havertown, PA, USA). […] DEA-NO was added to the final concentration of 500 nM, and shortly after, collagen was added to each sample to a final concentration of 2 μg/mL to induce platelet aggregation, which was thereafter monitored for 10 min using an optical aggregometer Chrono-Log 490-2D (Chrono-Log, Havertown, PA, USA). The total area under the aggregation curve (AUC) and the maximal value of platelet aggregation (Amax,U) was recorded. […]
Shortly prior to measurement, 500 nM DEA-NO was added, followed by 2 μg/mL collagen. Percentage of inhibition of platelet response was calculated in comparison to a sample treated with DMSO and DEA-NO on the basis of maximal value of platelet aggregation. […]

The test system of data set [14] is breast adenocarcinoma MDA-MB-231. The data set can be described thus: MTT cell viability assay, MDA-MB-231. The format is cell-based, human. The following applies: Homo sapiens; MDA-MB-231, MTT, 72 h; median (95% Confidence Intervals). How it is done:
as §1, §2, §3

For data set [15], the system named is glioblastoma U-251 MG. The data set can be described thus: MTT cell viability assay, U-251 MG. It is filed as cell-based, human. The conditions noted are these: Homo sapiens, 72 h, median (95% Confidence Intervals). How it is done:
as §1, with “The remaining cell lines were purchased from ATCC (Manassas, VA, USA) or Sigma-Aldrich by Merck (Darmstadt, Germany).” left out
The viability of cells was assayed by measuring the conversion of MTT (3-(4,5-dimethylthiazol-2-yl)-2,5-diphenyltetrazolium bromide) to the formazan (the rate of this reaction is proportional to the number of surviving cells). […] Optical densities were measured at 570 nm using a scanning multi-well spectrophotometer ([…] Detection Platform; Beckman Coulter, Brea, CA, USA). […]

The test system of data set [16] is cervical squamous cell carcinoma SKG-IIIa. The experiment in a line: MTT cell viability assay, SKG-IIIa. The conditions noted are these: Homo sapiens, SKGIIIa, 72 h, median (95% Confidence Intervals). The format is cell-based, human. How it is done: as §1, §2, §3
Data set [17] has as its system colorectal carcinoma HCT116. The experiment in a line: MTT cell viability assay, HCT116. The format is cell-based, human. The following applies: Homo sapiens, HCT-116, 72 h, median (95% Confidence Intervals). How it is done: as §1, §2, §3
The test system of data set [18] is PDE5. The conditions noted are these: read-out: earlier reported IC50 values for PDE5; cited from earlier work.
Data set [19] concerns lung carcinoma A549. The experiment in a line: MTT cell viability assay, A549. It is filed as cell-based, human. The conditions noted are these: Homo sapiens, 72 h, median (95% Confidence Intervals). How it is done: as §1, §2, §3
The test system of data set [20] is glioblastoma U-87 MG. The experiment in a line: MTT cell viability assay, U-87 MG. The following applies: Homo sapiens, 72 h, median (95% Confidence Intervals). It is filed as cell-based, human. How it is done:
as §1, §2, §3

Data set [21] concerns bone osteosarcoma U-2 OS. The data set can be described thus: MTT cell viability assay, U-2 OS. It is filed as cell-based, human. The conditions noted are these: Homo sapiens, U2OS, 72 h, median (95% Confidence Intervals). How it is done:
as §1, §2, §3

Data set [22] concerns breast adenocarcinoma MCF7. The data set can be described thus: MTT cell viability assay, MCF7. The format is cell-based, human. The following applies: Homo sapiens, 72 h, median (95% Confidence Intervals). How it is done:
as §1, §2, §3

Consider `CCN1CC(=O)N2C(Cc3c([nH]c4ccccc34)C2c2ccccc2Br)C1=O` (stereo not shown) [Compound 3], for which the IC50 in data set [1] was 25.5 µM; in data set [2], 0.06 µM.
`O=C1C2Cc3c([nH]c4ccccc34)C(c3ccc4c(c3)OCO4)N2C(=O)CN1CCC1CCN(Cc2ccccc2)CC1` (stereo not shown) [Compound 5]: the IC50 is 1.53 µM in data set [3] and 0.032 µM in data set [4].
In the case of `CN1CC(=O)N2[C@H](c3ccc4c(c3)OCO4)c3[nH]c4ccccc4c3C[C@@H]2C1=O` [Tadalafil, reference compound], the IC50 in data set [5] worked out at 19.8 µM; in [6] it was 42.3 µM; in data set [7] it was 52.5 µM; in data set [8], 20.4 µM; in data set [9], 31 µM; in data set [10], 46.6 µM. Also, the IC50 in [11] amounted to 40.5 µM; in [12], 28.7 µM; in data set [14] it was 87.6 µM; in [15], 44.1 µM; in data set [16] it was 35.1 µM; in data set [17], 27.2 µM. Also, the IC50 in data set [18] is […]; in data set [19], 51.5 µM; in data set [20], 40.7 µM; in [21], 35.1 µM; in data set [22] it was 55.3 µM. In data set [13], the inhibition at 10 µM was ~50%.

One may read the IC50 as the concentration at which inhibition is half-maximal. One may read the inhibition as the share of the control response that was lost under treatment.
